# Paper PMC5392334, “Discovery and characterization of a novel irreversible EGFR mutants selective and potent kinase inhibitor CHMFL-EGFR-26 with a distinct binding mode” (Oncotarget, 2017)
# Legend:
# HUNK = molecular target: T1, HUNK (Homo sapiens, UniProt P57058); test: KinomeScan; format: binding; details: read-out: % control
# T1 construct: purchased DiscoveRx KINOMEscan
# CAMK2D = molecular target: T2, CAMK2D (Homo sapiens, UniProt Q13557); test: KinomeScan; format: binding; details: read-out: % control
# T2 construct: purchased DiscoveRx KINOMEscan
# PIP5K2C = molecular target: T3, PIP5K2C (Homo sapiens, UniProt Q8TBX8); test: KinomeScan; format: binding; details: read-out: % control
# T3 construct: purchased DiscoveRx KINOMEscan
# [1] = molecular target: RPS6KA5(Kin.Dom.2-C-terminal) (Homo sapiens, UniProt O75582); test: KinomeScan; format: binding; details: read-out: % control
# SRPK3 = molecular target: T4, SRPK3 (Homo sapiens, UniProt Q9UPE1); test: KinomeScan; format: binding; details: read-out: % control
# T4 construct: purchased DiscoveRx KINOMEscan
# CDKL5 = molecular target: T5, CDKL5 (Homo sapiens, UniProt O76039); test: KinomeScan; format: binding; details: read-out: % control
# T5 construct: purchased DiscoveRx KINOMEscan
# PKN2 = molecular target: T6, PKN2 (Homo sapiens, UniProt Q16513); test: KinomeScan; format: binding; details: read-out: % control
# T6 construct: purchased DiscoveRx KINOMEscan
# [2] = molecular target: T7, TYK2(JH2domain-pseudokinase) (Homo sapiens, UniProt P29597); test: KinomeScan; format: binding; details: read-out: % control
# T7 construct: TYK2(JH2domain-pseudokinase); purchased DiscoveRx KINOMEscan
# TYRO3 = molecular target: T8, TYRO3 (Homo sapiens, UniProt Q06418); test: KinomeScan; format: binding; details: read-out: % control
# T8 construct: purchased DiscoveRx KINOMEscan
# BaF3-IGF1R = test: Anti-proliferative effects, IGF1R transformed isogenic BaF3 cells; format: cell-based; details: Mus musculus, read-out: IC50 (anti-proliferative; GI50)
# [3] = system: NSCLC cell lines (H1975, HCC827, PC9, H3255; A549, H1355); test: Cell cycle analysis; format: cell-based, human
# Procedure: We then examined CHMFL-EGFR-26's effect on cell cycle progression and apoptosis.
# The cells were fixed in 70% cold ethanol and incubated at −20 °C overnight then stained with PI/RNase staining buffer (BD Pharmingen). Flow cytometry was performed using a FACS Calibur (BD), and results were analyzed by ModFit software.
# HPK1 = molecular target: T9, HPK1 (Homo sapiens, UniProt Q92918); test: KinomeScan; format: binding; details: read-out: % control
# T9 construct: purchased DiscoveRx KINOMEscan
# BaF3-TEL-EGFR-T790M = test: Anti-proliferation, BaF3 isogenic cell lines (CellTiter-Glo); format: cell-based; details: Mus musculus, 72 hours, triplet testing
# ERK1 = molecular target: T10, ERK1 (Homo sapiens, UniProt P27361); test: KinomeScan; format: binding; details: read-out: % control
# T10 construct: purchased DiscoveRx KINOMEscan
# BTK = molecular target: T11, BTK (Homo sapiens, UniProt Q06187); test: Invitrogen SelectScreen biochemical assay
# T11 construct: purchased Invitrogen (SelectScreen service)
# Source text: (§1) In order to better understand CHMFL-EGFR-26's selectivity, we then tested it in DiscoveRx's KinomeScan™ assay. […] Given the fact that KinomeScan™ is a binding assay and sometimes cannot truly reflect the compound inhibitory activity, we then used Invitrogen SelectScreen® assay to test these potential off-targets (Supplementary Table 2). […] This was not surprising because EGFR, JAK3, HER2, HER4 and TEC family kinases (BTK, BLK and BMX) all share a similar cysteine residue at the identical position analogous to Cys 797 in EGFR in the hinge binding area.
# (§2) www.impactjournals.com/oncotarget/ Oncotarget, Supplementary Materials 2017
# (§3) KinomeScan Profiling by invitrogen SelectScreen® assay
# (§4) (1 picture or pasted object on this page, not shown here)
# BLK = molecular target: T12, BLK (Homo sapiens, UniProt P51451); test: Invitrogen SelectScreen biochemical assay
# T12 construct: purchased Invitrogen (SelectScreen service)
# Source text: as §1, §2, §3, §4
# MEK1 = molecular target: T13, MEK1 (Homo sapiens, UniProt Q02750); test: Invitrogen SelectScreen biochemical assay
# T13 construct: purchased Invitrogen (SelectScreen service)
# Source text: as §1, §2, §3, §4
# MLK2 = molecular target: T14, MLK2 (Homo sapiens, UniProt Q02779); test: KinomeScan; format: binding; details: read-out: % control
# T14 construct: purchased DiscoveRx KINOMEscan
# RIPK4 = molecular target: T15, RIPK4 (Homo sapiens, UniProt P57078); test: KinomeScan; format: binding; details: read-out: % control
# T15 construct: purchased DiscoveRx KINOMEscan
# SGK2 = molecular target: T16, SGK2 (Homo sapiens, UniProt Q9HBY8); test: KinomeScan; format: binding; details: read-out: % control
# T16 construct: purchased DiscoveRx KINOMEscan
# [4] = molecular target: T17, RPS6KA5(Kin.Dom.1-N-terminal) (Homo sapiens, UniProt O75582); test: KinomeScan; format: binding; details: read-out: % control
# T17 construct: RPS6KA5(Kin.Dom.1-N-terminal); purchased DiscoveRx KINOMEscan
# MAPKAPK5 = molecular target: T18, MAPKAPK5 (Homo sapiens, UniProt Q8IW41); test: KinomeScan; format: binding; details: read-out: % control
# T18 construct: purchased DiscoveRx KINOMEscan
# MST1R = molecular target: T19, MST1R (Homo sapiens, UniProt Q04912); test: KinomeScan; format: binding; details: read-out: % control
# T19 construct: purchased DiscoveRx KINOMEscan
# AURKB = molecular target: T20, AURKB (Homo sapiens, UniProt Q96GD4); test: KinomeScan; format: binding; details: read-out: % control
# T20 construct: purchased DiscoveRx KINOMEscan
# RIPK2 = molecular target: T21, RIPK2 (Homo sapiens, UniProt O43353); test: KinomeScan; format: binding; details: read-out: % control
# T21 construct: purchased DiscoveRx KINOMEscan
# ERK8 = molecular target: T22, ERK8 (Homo sapiens, UniProt Q8TD08); test: KinomeScan; format: binding; details: read-out: % control
# T22 construct: purchased DiscoveRx KINOMEscan
# Parental BaF3 = test: Anti-proliferation, BaF3 isogenic cell lines (CellTiter-Glo); format: cell-based; details: Mus musculus
# STK16 = molecular target: T23, STK16 (Homo sapiens, UniProt O75716); test: KinomeScan; format: binding; details: read-out: % control
# T23 construct: purchased DiscoveRx KINOMEscan
# MARK4 = molecular target: T24, MARK4 (Homo sapiens, UniProt Q96L34); test: KinomeScan; format: binding; details: read-out: % control
# T24 construct: purchased DiscoveRx KINOMEscan
# NEK2 = molecular target: T25, NEK2 (Homo sapiens, UniProt P51955); test: KinomeScan; format: binding; details: read-out: % control
# T25 construct: purchased DiscoveRx KINOMEscan
# CSNK2A2 = molecular target: T26, CSNK2A2 (Homo sapiens, UniProt P19784); test: KinomeScan; format: binding; details: read-out: % control
# T26 construct: purchased DiscoveRx KINOMEscan
# MAP3K2 = molecular target: T27, MAP3K2 (Homo sapiens, UniProt Q9Y2U5); test: KinomeScan; format: binding; details: read-out: % control
# T27 construct: purchased DiscoveRx KINOMEscan
# PRKCD = molecular target: T28, PRKCD (Homo sapiens, UniProt Q05655); test: KinomeScan; format: binding; details: read-out: % control
# T28 construct: purchased DiscoveRx KINOMEscan
# MERTK = molecular target: T29, MERTK (Homo sapiens, UniProt Q12866); test: KinomeScan; format: binding; details: read-out: % control
# T29 construct: purchased DiscoveRx KINOMEscan
# MAST1 = molecular target: T30, MAST1 (Homo sapiens, UniProt Q9Y2H9); test: KinomeScan; format: binding; details: read-out: % control
# T30 construct: purchased DiscoveRx KINOMEscan
# T8 sequence (Q06418 41-890): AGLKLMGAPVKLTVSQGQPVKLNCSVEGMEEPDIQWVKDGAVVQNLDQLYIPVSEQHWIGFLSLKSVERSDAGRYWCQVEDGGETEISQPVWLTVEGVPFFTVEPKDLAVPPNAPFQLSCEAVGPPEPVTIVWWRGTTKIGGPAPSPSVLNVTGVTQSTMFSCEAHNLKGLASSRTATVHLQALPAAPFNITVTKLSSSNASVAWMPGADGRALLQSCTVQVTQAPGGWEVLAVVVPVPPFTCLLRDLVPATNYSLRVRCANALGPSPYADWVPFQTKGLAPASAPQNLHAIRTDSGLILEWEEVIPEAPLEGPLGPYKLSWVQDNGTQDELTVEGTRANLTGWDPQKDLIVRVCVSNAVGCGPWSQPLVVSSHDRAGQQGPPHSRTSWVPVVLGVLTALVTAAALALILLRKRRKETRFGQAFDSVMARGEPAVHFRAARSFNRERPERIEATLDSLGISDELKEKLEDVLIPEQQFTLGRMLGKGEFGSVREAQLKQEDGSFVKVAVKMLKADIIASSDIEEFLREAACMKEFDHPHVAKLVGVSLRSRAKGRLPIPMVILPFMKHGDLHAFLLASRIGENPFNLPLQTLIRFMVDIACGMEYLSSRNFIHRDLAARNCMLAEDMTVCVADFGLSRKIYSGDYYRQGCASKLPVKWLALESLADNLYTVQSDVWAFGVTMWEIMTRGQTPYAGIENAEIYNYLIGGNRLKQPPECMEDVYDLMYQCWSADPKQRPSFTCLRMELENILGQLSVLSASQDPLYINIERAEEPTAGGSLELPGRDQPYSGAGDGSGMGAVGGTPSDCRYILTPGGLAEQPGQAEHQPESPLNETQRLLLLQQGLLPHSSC
# T17 sequence (O75582 1-387 limits assumed): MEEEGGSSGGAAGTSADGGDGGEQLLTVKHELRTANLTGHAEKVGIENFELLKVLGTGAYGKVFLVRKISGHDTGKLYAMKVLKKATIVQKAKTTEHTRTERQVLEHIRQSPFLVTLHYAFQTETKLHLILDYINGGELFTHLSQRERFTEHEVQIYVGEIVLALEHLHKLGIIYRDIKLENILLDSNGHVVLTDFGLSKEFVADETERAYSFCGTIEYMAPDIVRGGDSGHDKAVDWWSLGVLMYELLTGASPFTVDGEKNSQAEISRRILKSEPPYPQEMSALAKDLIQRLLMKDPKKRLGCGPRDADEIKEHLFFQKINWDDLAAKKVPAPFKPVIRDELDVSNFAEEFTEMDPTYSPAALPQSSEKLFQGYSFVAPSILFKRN
# T20 sequence (Q96GD4 whole entry): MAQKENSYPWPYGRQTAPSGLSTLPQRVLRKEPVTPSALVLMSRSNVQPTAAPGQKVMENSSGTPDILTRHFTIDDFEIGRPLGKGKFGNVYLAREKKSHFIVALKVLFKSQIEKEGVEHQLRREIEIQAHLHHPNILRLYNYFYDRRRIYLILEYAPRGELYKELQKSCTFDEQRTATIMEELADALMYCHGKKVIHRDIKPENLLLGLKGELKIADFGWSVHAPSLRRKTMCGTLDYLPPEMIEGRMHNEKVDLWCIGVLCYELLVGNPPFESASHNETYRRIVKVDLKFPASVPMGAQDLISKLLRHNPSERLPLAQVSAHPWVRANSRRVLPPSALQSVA
# T24 sequence (Q96L34 whole entry): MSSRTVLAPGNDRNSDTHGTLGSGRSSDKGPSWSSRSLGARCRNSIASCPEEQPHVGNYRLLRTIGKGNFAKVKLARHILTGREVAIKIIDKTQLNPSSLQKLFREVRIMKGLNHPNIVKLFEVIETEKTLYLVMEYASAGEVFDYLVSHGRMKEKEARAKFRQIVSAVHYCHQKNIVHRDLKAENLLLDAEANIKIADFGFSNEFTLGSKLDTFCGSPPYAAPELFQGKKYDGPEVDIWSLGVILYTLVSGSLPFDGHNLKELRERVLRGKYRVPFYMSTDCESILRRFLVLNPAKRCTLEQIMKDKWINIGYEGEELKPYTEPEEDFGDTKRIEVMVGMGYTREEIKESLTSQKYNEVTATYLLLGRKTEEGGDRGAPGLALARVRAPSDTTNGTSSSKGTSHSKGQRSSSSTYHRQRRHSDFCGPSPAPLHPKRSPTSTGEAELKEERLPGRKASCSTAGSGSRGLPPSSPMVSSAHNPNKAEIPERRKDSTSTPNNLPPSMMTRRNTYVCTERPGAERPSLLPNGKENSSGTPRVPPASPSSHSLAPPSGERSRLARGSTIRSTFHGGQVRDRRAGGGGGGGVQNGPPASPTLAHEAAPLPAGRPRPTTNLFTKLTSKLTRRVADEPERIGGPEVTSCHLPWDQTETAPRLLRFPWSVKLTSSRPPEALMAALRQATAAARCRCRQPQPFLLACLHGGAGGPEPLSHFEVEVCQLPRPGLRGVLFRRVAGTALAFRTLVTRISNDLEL
# T29 sequence (Q12866 21-999): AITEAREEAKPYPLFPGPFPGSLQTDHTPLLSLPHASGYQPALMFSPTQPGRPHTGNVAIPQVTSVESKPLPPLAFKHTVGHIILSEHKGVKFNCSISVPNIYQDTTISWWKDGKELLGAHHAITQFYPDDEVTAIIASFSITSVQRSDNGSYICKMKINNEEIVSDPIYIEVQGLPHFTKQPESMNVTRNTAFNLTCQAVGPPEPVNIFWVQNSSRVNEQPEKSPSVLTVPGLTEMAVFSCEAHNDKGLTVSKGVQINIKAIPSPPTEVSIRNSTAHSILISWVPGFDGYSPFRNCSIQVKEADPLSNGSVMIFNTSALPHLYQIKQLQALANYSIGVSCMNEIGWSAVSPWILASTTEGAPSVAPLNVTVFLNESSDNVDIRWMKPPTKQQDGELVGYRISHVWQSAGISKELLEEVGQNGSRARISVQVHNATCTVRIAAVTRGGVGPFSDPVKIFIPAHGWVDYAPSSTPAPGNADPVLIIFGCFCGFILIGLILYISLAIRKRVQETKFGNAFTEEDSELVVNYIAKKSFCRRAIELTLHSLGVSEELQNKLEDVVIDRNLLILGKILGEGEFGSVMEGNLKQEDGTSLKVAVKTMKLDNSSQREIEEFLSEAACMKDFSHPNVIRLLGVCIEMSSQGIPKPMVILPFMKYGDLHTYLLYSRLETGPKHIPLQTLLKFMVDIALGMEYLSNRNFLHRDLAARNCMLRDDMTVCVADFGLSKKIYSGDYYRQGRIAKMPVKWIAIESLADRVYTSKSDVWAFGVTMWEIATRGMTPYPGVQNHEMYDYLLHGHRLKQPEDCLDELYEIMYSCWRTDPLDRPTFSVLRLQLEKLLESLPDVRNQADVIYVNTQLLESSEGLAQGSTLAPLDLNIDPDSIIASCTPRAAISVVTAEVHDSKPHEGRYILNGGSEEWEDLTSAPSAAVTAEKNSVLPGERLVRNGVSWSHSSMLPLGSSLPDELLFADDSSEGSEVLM
# T7 sequence (P29597 556-888 limits assumed): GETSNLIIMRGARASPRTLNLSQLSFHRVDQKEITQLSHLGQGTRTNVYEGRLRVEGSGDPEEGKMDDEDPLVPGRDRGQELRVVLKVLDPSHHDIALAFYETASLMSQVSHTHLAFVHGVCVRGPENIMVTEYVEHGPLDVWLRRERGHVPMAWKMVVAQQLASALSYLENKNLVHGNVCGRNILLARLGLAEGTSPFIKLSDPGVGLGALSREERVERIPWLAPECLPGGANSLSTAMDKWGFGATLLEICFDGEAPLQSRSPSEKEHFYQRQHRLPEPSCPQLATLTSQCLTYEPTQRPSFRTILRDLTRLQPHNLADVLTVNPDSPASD
# T18 sequence (Q8IW41 whole entry): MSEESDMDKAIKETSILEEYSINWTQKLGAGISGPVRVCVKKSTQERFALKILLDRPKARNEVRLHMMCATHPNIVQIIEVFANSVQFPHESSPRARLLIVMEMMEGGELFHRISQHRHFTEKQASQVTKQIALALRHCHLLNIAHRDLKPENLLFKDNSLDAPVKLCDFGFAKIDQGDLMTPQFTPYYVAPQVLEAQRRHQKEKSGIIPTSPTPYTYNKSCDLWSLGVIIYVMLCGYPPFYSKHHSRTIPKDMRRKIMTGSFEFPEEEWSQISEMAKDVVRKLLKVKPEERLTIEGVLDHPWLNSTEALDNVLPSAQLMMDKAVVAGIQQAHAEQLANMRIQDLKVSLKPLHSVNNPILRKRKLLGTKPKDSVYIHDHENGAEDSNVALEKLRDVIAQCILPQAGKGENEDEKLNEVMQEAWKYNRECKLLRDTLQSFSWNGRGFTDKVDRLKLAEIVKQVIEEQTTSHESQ
# T16 sequence (Q9HBY8 whole entry): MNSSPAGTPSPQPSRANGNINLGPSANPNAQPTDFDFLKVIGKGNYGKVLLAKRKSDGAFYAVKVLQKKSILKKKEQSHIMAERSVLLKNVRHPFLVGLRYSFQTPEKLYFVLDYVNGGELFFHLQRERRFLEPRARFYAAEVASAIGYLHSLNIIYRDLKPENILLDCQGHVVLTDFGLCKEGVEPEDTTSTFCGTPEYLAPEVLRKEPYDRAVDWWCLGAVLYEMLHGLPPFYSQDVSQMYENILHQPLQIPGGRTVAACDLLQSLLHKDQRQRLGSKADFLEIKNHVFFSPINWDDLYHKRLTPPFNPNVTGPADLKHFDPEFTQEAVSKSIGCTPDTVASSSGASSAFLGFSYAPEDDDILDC
# T25 sequence (P51955 whole entry): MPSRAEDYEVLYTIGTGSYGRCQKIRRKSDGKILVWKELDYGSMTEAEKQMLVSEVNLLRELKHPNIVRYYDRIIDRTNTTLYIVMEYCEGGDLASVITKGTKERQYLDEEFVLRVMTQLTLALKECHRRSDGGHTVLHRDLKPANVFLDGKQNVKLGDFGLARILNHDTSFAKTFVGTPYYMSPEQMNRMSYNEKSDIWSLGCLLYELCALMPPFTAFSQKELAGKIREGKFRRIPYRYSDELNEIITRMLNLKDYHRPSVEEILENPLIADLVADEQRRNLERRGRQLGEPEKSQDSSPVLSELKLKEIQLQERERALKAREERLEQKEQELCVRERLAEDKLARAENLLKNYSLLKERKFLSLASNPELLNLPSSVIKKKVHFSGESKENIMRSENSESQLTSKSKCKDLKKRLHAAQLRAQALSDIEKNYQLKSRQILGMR
smiles,measurement,setting,value
C=CC(=O)N1CCC[C@@H](n2nc(-c3ccc(OCc4cccc(C)n4)c(Cl)c3)c3c(N)ncnc32)C1 [CHMFL-EGFR-26],remaining binding at 1 µM,HUNK,72%
same,remaining binding at 1 µM,CAMK2D,91%
same,remaining binding at 1 µM,PIP5K2C,85%
same,remaining binding at 1 µM,[1],100%
same,remaining binding at 1 µM,SRPK3,90%
same,remaining binding at 1 µM,CDKL5,100%
same,remaining binding at 1 µM,PKN2,53%
same,remaining binding at 1 µM,[2],97%
same,remaining binding at 1 µM,TYRO3,53%
same,IC50,BaF3-IGF1R,3600 nM
same,cell cycle progression,"[3]; H1975, HCC827, PC9 and H3255 (EGFR mutants), 24-hour",dramatically blocked cell cycle at G0/G1 phase
same,cell cycle progression,"[3]; wild-type EGFR lines A549 and H1355, up to 3 μM, 72-hour",did not cause cell cycle arrest
same,remaining binding at 1 µM,HPK1,100%
same,GI50,BaF3-TEL-EGFR-T790M,< 0.3 nM
same,remaining binding at 1 µM,ERK1,91%
same,IC50,BTK,16.3 nM
same,IC50,BLK,3.9 nM
same,IC50,MEK1,131 nM
same,remaining binding at 1 µM,MLK2,80%
same,remaining binding at 1 µM,RIPK4,96%
same,remaining binding at 1 µM,SGK2,100%
same,remaining binding at 1 µM,[4],100%
same,remaining binding at 1 µM,MAPKAPK5,100%
same,remaining binding at 1 µM,MST1R,100%
same,remaining binding at 1 µM,AURKB,77%
same,remaining binding at 1 µM,RIPK2,13%
same,remaining binding at 1 µM,ERK8,91%
same,IC50,"Parental BaF3; Parental BaF3, Supplementary Table 3, read-out: IC50 (anti-proliferative)",9000 nM
same,GI50,"Parental BaF3; Parental BaF3, 72 hours, triplet testing",> 10000 nM
same,remaining binding at 1 µM,STK16,100%
same,remaining binding at 1 µM,MARK4,100%
same,remaining binding at 1 µM,NEK2,18%
same,remaining binding at 1 µM,CSNK2A2,91%
same,remaining binding at 1 µM,MAP3K2,52%
same,remaining binding at 1 µM,PRKCD,100%
same,remaining binding at 1 µM,MERTK,79%
same,remaining binding at 1 µM,MAST1,93%
